Values of other authors, collected in US20220054467A1, “TREATMENT OF PSORIASIS WITH TOPICAL TAPINAROF-TAZAROTENE COMBINATION COMPOSITIONS” (Sol-Gel Technologies Ltd., priority 2019, published 2022).
Like-named read-outs stand apart in the source and are kept apart here.

Columns and labels:
[1] = as a single drug; placebo 20.2%
[2] = tested on: interleukin-6 and interleukin-17A; conditions: mouse models
[3] = tested on: interleukin-6 and interleukin-17A; conditions: in vitro human skin
[4] = 1% tapinarof arm vs. the 0.5% arm or vehicle

SMILES | adverse effects [1] [%] | effect on proinflammatory mediators, including interleukin-6 and interleukin-17A [2] | effect on skin barrier function [2] | effect on proinflammatory mediators, including interleukin-6 and interleukin-17A [3] | effect on skin barrier function [3] | efficacy (plaque psoriasis; [4]) | onset of action (plaque psoriasis; [4]) | most frequent adverse events (plaque psoriasis; topical cream, clinical studies)
C=C1/C(=C\C=C2/CCC[C@]3(C)[C@@H]([C@H](C)/C=C/[C@@H](O)C4CC4)CC[C@@H]23)C[C@@H](O)C[C@@H]1O [calcipotriene] | 19.5 |  |  |  |  |  |  | 
CC(C)c1c(O)cc(/C=C/c2ccccc2)cc1O [Tapinarof, 3,5-dihydroxy-4-isopropyl-trans-stilbene] | 44.5 | inhibit specific proinflammatory mediators | enhance skin barrier function | inhibit specific proinflammatory mediators | enhance skin barrier function | higher efficacy | quicker onset of action | folliculitis and contact dermatitis
